Reference: patent US20260209274A1, “COMPOSITION FOR SKIN REPIGMENTATION” (BELLA AURORA LABS, S.A., priority 2022, published 2026)
Non-standard residues stand in square brackets, D forms with d. No end group written: not given here. Nle = CCCC[C@H](N)C(=O)O

Experiments:
[1] = test system: reconstructed human pigmented epidermis (RHPE); test: In vitro repigmentation assay in reconstructed human pigmented epidermis (RHPE), without irradiation; assay type: cell-based; conditions: A 3.0 ppm
Method: (§1) For assessing the repigmentation effect, a reconstructed epidermis model was used, namely, based on adding melanocytes and keratinocytes on a polycarbonate filter (SkinEthic® RHPE, available from the company Episkin).
(§2) Sample tissues were treated with the test products for 6 days (from day1 to day6). After each dosing, the samples were incubated at 37° C., and melanin extraction was performed after 6 days of treatment (at day7). Untreated samples were also included in the assay as controls. An evaluation of cell viability was also performed.
(§3) After treatment, melanin extraction was performed by plunging each sample filter into 800 μl of Solvable® (Perkin Elmer) and heating at 63° C. overnight. The optical density of the supernatants was measured on 300 μl extract at 405 nm using synthetic melanin as reference. 6 samples were used for each treatment and the mean value was calculated.
(§4) For each of the treatments the increase in the amount of melanin generated versus the control (0) was calculated. For analysing a possible synergistic effect, the experimental increase in melanin in the combined treatment (A+B) was compared to the theoretical increase to be expected if a simple additive effect were obtained.
Another in vitro repigmentation assay was performed using the same reconstructed epidermis model and the same procedure as disclosed in Example 1. In this case, the assay was performed without irradiation.
In this example, the same reconstructed epidermis model was used, namely, based on adding melanocytes and keratinocytes on a polycarbonate filter (SkinEthic® RHPE, available from the company Episkin), using the same protocol disclosed in Example 1.

[2] = test system: reconstructed human pigmented epidermis (RHPE); test: In vitro repigmentation assay in reconstructed human pigmented epidermis (RHPE), samples irradiated; assay type: cell-based; conditions: Example 1; irradiated with 150 J/m^2 at 300 W/m^2 on day2, day3, day4; A 3.0 ppm, B 0.4 ppm, A + B 1.5 ppm + 0.2 ppm (7.5:1)
Method: as §1, §2, §3
Another analogous assay, with the same treatments, was performed but simultaneously irradiating the samples. In this second assay, the samples were irradiated with 150 J/m^2 at 300 W/m^2 three times on consecutive days (on day2, day3, and day4 of the assay).
as §4

[3] = Example 3, C 0.1 ppm, A + C 1.5 ppm + 0.05 ppm (30:1)
[4] = Example 3, C 0.1 ppm, A + C 1.5 ppm + 0.05 ppm (30:1) in culture medium
[5] = Example 1, without irradiation, 6 days of treatment, extraction at day7, B 0.4 ppm, A + B 1.5 ppm + 0.2 ppm (7.5:1) in culture medium
[6] = Example 1, without irradiation, 6 days of treatment, B 0.4 ppm, A + B 1.5 ppm + 0.2 ppm (7.5:1)
[7] = Example 4, D 1.2 ppm, A + D 1.5 ppm + 0.6 ppm (2.5:1)
[8] = Example 4, D 1.2 ppm, A + D 1.5 ppm + 0.6 ppm (2.5:1) in culture medium

| Substance | Melanin increase vs. control [1, 3] | Melanin [1, 4] | Melanin [1, 5] | Melanin increase vs. control [1, 6] | Melanin increase vs. control [1, 7] | Melanin [1, 8] | Melanin [2] | Melanin increase vs. control [2] |
| --- | --- | --- | --- | --- | --- | --- | --- | --- |
| His-DPhe-Arg-Trp (H[dF]RW) [C] | 1.93 µg | 38.45 µg | – | – | – | – | – | – |
| FHWRYPLPLPGQ (MIA inhibitor) | 0.11 µg | 36.63 µg | 34.39 µg | 1.29 µg | 1.33 µg | 33.34 µg | 36.07 µg | 1.35 µg |
| Nle-Ala-His-DPhe-Arg-Trp (Ac-[Nle]AH[dF]RW) [B] | – | – | 37.31 µg | 4.21 µg | – | – | 38.07 µg | 3.35 µg |
| palmitoyl-prolil-proline [D] | – | – | – | – | 0.48 µg | 32.49 µg | – | – |
